Data reported in patent publication US8445490B2, “Compounds for the treatment of hepatitis C” (priority 2009, dated 2013).
Like-named read-outs stand apart in the source and are kept apart here.

Tested on: HCV pseudoparticles, genotype 1a (H77C) E1 and E2 envelope
Experiment: microbe, parasite or virus in culture
Assay type: cell-based, HCV genotype 1a (H77C isolate)
Conditions: Hepatitis C virus, Huh-7, 48 h, HCV pseudoparticles 1a (H77C), Huh7 cells, luciferase 2 days after infection
[1] = read-out: EC50 (nM) 1a (H77C), Table 1a, class
[2] = read-out: EC50 (nM) 1a (H77C), Table 1a
[3] = read-out: EC50 (nM) 1a (H77C), Table 1b, class
[4] = read-out: EC50 (nM) 1a (H77C), Table 1b

Row | Compound | EC50 [1] | EC50 [3] | further results
1 | O=C1NCCNCCNc2nc(nc(OCC(F)(F)F)n2)Nc2ccc1cc2 [Example 0001] | 1000 to 5000 nM | – | EC50 [2]: 4200 nM
2 | O=C1NCCCCCCCCNc2nc(nc(OCC(F)(F)F)n2)Nc2ccc1cc2 [Example 0002] | 0.1 to 100 nM | – | –
3 | O=C1NCCCCCCCCCCNc2nc(nc(OCC(F)(F)F)n2)Nc2ccc1cc2 [Example 0003] | 100 to 1000 nM | – | EC50 [2]: 101 nM
4 | O=C1NCCCOCCCCOCCCNc2nc(nc(OCC(F)(F)F)n2)Nc2ccc1cc2 [Example 0004] | 0.1 to 100 nM | – | EC50 [2]: 48.4 nM
5 | CC(=O)N1CCNC(=O)c2ccc(cc2)Nc2nc(nc(OCC(F)(F)F)n2)NCC1 [Example 0005] | 1000 to 5000 nM | – | –
6 | O=C1NCCCCNC(=O)C2(CC2)Nc2nc(nc(OCC(F)(F)F)n2)Nc2ccc1cc2 [Example 0006] | 1000 to 5000 nM | – | –
7 | O=C1N[C@H]2CNC[C@@H]2C(=O)NCCCCCCOc2ccc(cc2)CNc2nc(nc(OCC(F)(F)F)n2)Nc2ccc1cc2 [Example 0007] | 0.1 to 100 nM | – | EC50 [2]: 8.31 nM
8 | CN(C)C(N1C[C@@H]2NC(=O)c3ccc(cc3)Nc3nc(nc(OCC(F)(F)F)n3)NCc3ccc(cc3)OCCCCCCNC(=O)[C@H]2C1)=[N+](C)C [Example 0008] | 0.1 to 100 nM | – | –
9 | CC(C)(C)OC(=O)N1CCN(CC2CNC(=O)c3ccc(cc3)Nc3nc(nc(OCC(F)(F)F)n3)NCc3ccc(cc3)OC/C=C/CO2)CC1 (stereo not shown) [Example 0009] | 100 to 1000 nM | – | –
10 | O=C1NCC(CN2CCNCC2)OC/C=C/COc2ccc(cc2)CNc2nc(nc(OCC(F)(F)F)n2)Nc2ccc1cc2 (stereo not shown) [Example 0010] | 1000 to 5000 nM | – | –
11 | O=C1NC(C2CCCNC2)C(=O)NCCCCCCOc2ccc(cc2)CNc2nc(nc(OCC(F)(F)F)n2)Nc2ccc1cc2 (stereo not shown) [Example 0011] | 0.1 to 100 nM | – | EC50 [2]: 62.8 nM
12 | O=C1NCCCCCCCCCCCCNC(=O)c2ccc(cc2)Nc2nc(nc(OCC(F)(F)F)n2)NCc2ccc1cc2 [Example 0034] | 1000 to 5000 nM | – | –
13 | O=C1NCCCOCCOCCOCCCNC(=O)c2ccc(cc2)Nc2nc(nc(OCC(F)(F)F)n2)NCc2ccc1cc2 [Example 0036] | 1000 to 5000 nM | – | –
14 | O=C1NCCCCCCCCCNC(=O)c2ccc(cc2)Nc2nc(nc(OCC(F)(F)F)n2)NCc2ccc1cc2 [Example 0037] | 100 to 1000 nM | – | –
15 | O=C1NCCCCCCCCCCCNC(=O)c2ccc(cc2)Nc2nc(nc(OCC(F)(F)F)n2)NCc2ccc1cc2 [Example 0038] | 100 to 1000 nM | – | EC50 [2]: 840 nM
16 | O=C1CCCCCCCCC(=O)NCc2ccc(cc2)Nc2nc(nc(OCC(F)(F)F)n2)NCc2ccc(cc2)CN1 [Example 0064] | 100 to 1000 nM | – | EC50 [2]: 407 nM
17 | O=C1NS(=O)(=O)C/C=C/CCOc2ccc(cc2)CNc2nc(nc(OCC(F)(F)F)n2)Nc2ccc1cc2 [Example 3004] | 1000 to 5000 nM | – | EC50 [2]: 2940 nM
18 | O=C1NS(=O)(=O)C/C=C/CCCCOc2ccc(cc2)CNc2nc(nc(OCC(F)(F)F)n2)Nc2ccc1cc2 [Example 3006] | 1000 to 5000 nM | – | –

Row | Compound | EC50 [1] | EC50 [3] | further results
19 | O=C1CCNC(=O)c2ccc(cc2)Nc2nc(nc(OCC(F)(F)F)n2)NCc2ccc(cc2)OC/C=C/CS(=O)(=O)N1 [Example 3008] | 100 to 1000 nM | – | –
20 | O=C1CCNC(=O)c2ccc(cc2)Nc2nc(nc(OCC(F)(F)F)n2)NCc2ccc(cc2)OC/C=C\CS(=O)(=O)N1 [Example 3009] | 100 to 1000 nM | – | –
21 | O=C1NCCCNCCCOc2ccc(cc2)C2(CC2)Nc2nc(nc(OCC(F)(F)F)n2)Nc2ccc1cc2 [Example 5001] | – | 0.1 to 100 nM | –
22 | CCOC(=O)N1CCCNC(=O)c2ccc(cc2)Nc2nc(nc(OCC(F)(F)F)n2)NC2(CC2)c2ccc(cc2)OCCC1 [Example 5002] | – | 0.1 to 100 nM | –
23 | CCC(=O)N1CCCCNC(=O)c2ccc(cc2)Nc2nc(nc(OCC(F)(F)F)n2)NC2(CC2)c2ccc(cc2)OCCC1 [Example 5005] | – | 0.1 to 100 nM | –
24 | CC(C)(C)NC(=O)N1CCCOc2ccc(cc2)CNc2nc(nc(OCC(F)(F)F)n2)Nc2ccc(cc2)C(=O)NCC1 [Example 6001] | – | 0.1 to 100 nM | –
25 | CC(C)NC(=O)N1CCCOc2ccc(cc2)CNc2nc(nc(OCC(F)(F)F)n2)Nc2ccc(cc2)C(=O)NCC1 [Example 6003] | – | 0.1 to 100 nM | –
26 | CC(C)OC(=O)N1CCCOc2ccc(cc2)CNc2nc(nc(OCC(F)(F)F)n2)Nc2ccc(cc2)C(=O)NCC1 [Example 6004] | – | 0.1 to 100 nM | –
27 | CCOC(=O)N1CCCOc2ccc(cc2)CNc2nc(nc(OCC(F)(F)F)n2)Nc2ccc(cc2)C(=O)NCC1 [Example 6005] | – | 0.1 to 100 nM | –
28 | CCC(=O)N1CCCOc2ccc(cc2)CNc2nc(nc(OCC(F)(F)F)n2)Nc2ccc(cc2)C(=O)NCC1 [Example 6007] | – | 0.1 to 100 nM | –
29 | CC(C)C(=O)N1CCCOc2ccc(cc2)CNc2nc(nc(OCC(F)(F)F)n2)Nc2ccc(cc2)C(=O)NCC1 [Example 6008] | – | 0.1 to 100 nM | –
30 | CC(C)(C)NC(=O)N1CCCNC(=O)c2ccc(cc2)Nc2nc(nc(OCC(F)(F)F)n2)NCc2ccc(cc2)OCCC1 [Example 6013] | – | 0.1 to 100 nM | –
31 | CCOC(=O)N1CCCOc2ccc(cc2)CNc2nc(nc(OCC(F)(F)F)n2)Nc2ccc(cc2)C(=O)NCC(C)(C)C1 [Example 6033] | – | 0.1 to 100 nM | –
32 | CCCN1CCCOc2ccc(cc2)CNc2nc(nc(OCC(F)(F)F)n2)Nc2ccc(cc2)C(=O)NCC(C)(C)C1 [Example 6039] | – | 0.1 to 100 nM | –
33 | O=C1NCCCCNCCCNc2nc(nc(OCC(F)(F)F)n2)Nc2ccc1cc2 [Example 7001] | – | 1000 to 5000 nM | –
34 | O=C1NCCCCCNCCNc2nc(nc(OCC(F)(F)F)n2)Nc2ccc1cc2 [Example 8002] | – | 1000 to 5000 nM | EC50 [4]: > 50000 nM
35 | O=C1NCCCNCCCCCCCCNc2nc(nc(OCC(F)(F)F)n2)Nc2ccc1cc2 [Example 9001] | – | 100 to 1000 nM | EC50 [4]: 243 nM
36 | CC(C)(C)OC(=O)N1CCCCCCCCNc2nc(nc(OCC(F)(F)F)n2)Nc2ccc(cc2)C(=O)NCCC1 [Example 9002] | – | 0.1 to 100 nM | –
